Source: PMC12454639, “Direct disassembly of α-syn preformed fibrils into α-syn monomers by an all-D-peptide” (NPJ Parkinson's Disease, 2025)
Square brackets hold non-standard residues; d marks the D form. Peptide text beside a SMILES is read from it.

System: α-syn monomer
Assay: 100 kDa MWCO fractionation of de novo aggregation samples followed by ELISA
Type: biochemical, Human
Details: 7 days, ELISA n = 3
Experimental: Fig. 7 De novo aggregation analysis of α-syn in the presence and absence of SVD-1a. A De novo ThT assay of 10 µM α-syn with and without 20 µM SVD-1a. ThT fluorescence progression was measured in a 96-well non-binding half-area plate (Corning, USA) with a FLUOStar plate reader (BMG labtech, GE) at λex = 448 nm and λem = 482 nm with 300 rpm continuous orbital shaking between reads. For induction of aggregation, one borosilicate bead per well was added (d = 3 mm, Hilgenberg, GE). Data are shown as mean values with ±SD (n = 5). B CD secondary structure analysis of de novo aggregation samples. Samples were incubated as described in (A) without added ThT (n = 3) and subsequently pooled for CD analysis. Far-UV ellipticity of the samples was measured in a quartz cuvette (l = 10 mm) in a J-1100 CD-spectrometer (Jasco, GE). In addition to (A), a sample with 20 µM SVD-1a alone was incubated under identical conditions and later used as a reference for the sample with α-syn and SVD-1a. For this sample (α-syn + SVD-1a (after incubation)), the SVD-1a reference subtracted CD spectrum is shown. […] D α-Syn in the flow through (MWCO < 100 kDa) was quantified using an α-syn specific ELISA (BioLegend, Human α-Synuclein (Colorimetric), 448607, n = 3). E Retentate and flow-through samples were analyzed using SDS–PAGE with silver staining. […]

Structure (SMILES): CC[C@@H](C)[C@@H](NC(=O)[C@@H](Cc1c[nH]cn1)NC(=O)[C@@H](CCC(=O)O)NC(=O)[C@@H](CCC(N)=O)NC(=O)[C@@H](Cc1c[nH]c2ccccc12)NC(=O)[C@@H](Cc1ccc(O)cc1)NC(=O)[C@H](NC(=O)[C@@H](CCC(=O)O)NC(=O)[C@@H](Cc1c[nH]cn1)NC(=O)[C@H](NC(=O)[C@H]1CCCN1C(=O)[C@@H](CC(C)C)NC(=O)[C@H](N)CCCNC(=N)N)[C@H](C)O)[C@H](C)O)C(=O)N[C@H](Cc1c[nH]c2ccccc12)C(=O)N[C@H](Cc1c[nH]cn1)C(=O)N[C@H](C)C(=O)N[C@H](CCCNC(=N)N)C(=O)N[C@H](CCCNC(=N)N)C(=O)N[C@H](CCCNC(=N)N)C(=O)N[C@H](CCCNC(=N)N)C(=O)N[C@H](CCCNC(=N)N)C(N)=O [SVD-1a] (H-[dR][dL][dP][dT][dH][dE][dT][dY][dW][dQ][dE][dH][dI][dW][dH][dA][dR][dR][dR][dR][dR]-NH2)
- monomeric α-syn in flow-through (10 µM α-syn with 5, 10, 20 µM SVD-1a, controls ~3.7 µM before, ~0.3 µM after incubation without compound): concentration-dependent stabilization of monomeric α-syn
- monomeric α-syn in flow-through vs non-pre-incubated control (20 µM SVD-1a, 10 µM α-syn): restoring monomer levels in the eluate to those of the non-pre-incubated control
